# According to US11760733B2, “Small molecule regulators of mitochondrial fusion and methods of use thereof” (Washington University, priority 2017, dated 2023):
# “Also recorded” adds a separate entry of the source.
# Tested on: Mfn2 null MEFs
# Test: Mitochondrial elongation (aspect ratio) fusogenicity assay
# Type: cell-based, mouse
# Conditions: not given
# Source text: A cultured murine embryonic fibroblast assay system was used in which mitochondrial elongation (an increase in aspect ratio) reflects enhanced mitochondrial fusion.
# A pharmacophore model was generated based on the interactions of HR1 and HR2 domains in the calculated structural model of Mfn2 in the closed conformation. The key features included hydrophobic interactions involving Mfn2 HR1: Val372 and Met376, and aromatic interactions and hydrogen bonding involving Mfn2 HR1 His380. […] A library comprising ˜14 million commercially available compounds was prepared in silico and evaluated using PHASE to fit these criteria. Top ranked hits were clustered, and filtered based on pharmacological properties using Qikprop. The top 55 (see TABLE 4) commercially available small molecules conforming to the model were selected for functional screening and purchased in 1 mg aliquots. Each compound was dissolved to a stock concentration of 10 mM in DMSO and applied to Mfn2 null MEFs overnight at a final concentration of 1 mM. […] Images were acquired by confocal microscopy. Each compound was scored for fusogenicity (see e.g., FIG. 24A) and % cell death (see e.g., FIG. 24B).
# Wild-type MEFs were prepared from E10.5 c57/bl6 mouse embryos. […] MEFs were subcultured in DMEM (4.5 g/L glucose) plus 10% fetal bovine serum, 1× nonessential amino acids, 2 mM L-glutamine, 100U/ml penicillin and 100 ug/ml streptomycin.
# Cells were excited with 408 nm (Hoechst), […] (MitoTracker Green and Calcein AM, GFP), or 637 nm (TMRE, MitoTracker Orange, Ethidium homodimer-1, and AF594-Dextran) laser diodes. For mitochondrial elongation studies mitochondrial aspect ratio (long axis/short axis) was calculated using automated edge detection and Image J software. Mitochondrial depolarization was calculated as % of green mitochondria visualized on MitoTracker Green and TMRE merged images, expressed as green/(green+yellow mitochondria)×100.
row,SMILES,"fusogenic activity (mitochondrial elongation), in words"
1,O=C1CC(SCCc2nc3ccccc3[nH]2)C(=O)N1c1cccc(F)c1 (stereo not drawn) [D9],no true fusogenic activity; also recorded: failed validation in the secondary screen

# Same assay, conditions: Mus musculus; read-out: % long compare to B
row,SMILES,Emax
1,"CCn1c(SCC(=O)Nc2sc3c(c2C(N)=O)CCC3)nnc1-c1ccc(Cl)cc1 [1-A1, 2-(2-{[5-(4-chlorophenyl)-4-ethyl-4H-1,2,4-triazol-3-yl]sulfanyl}acetamido)-4H,5H,6H-cyclopenta[b]thiophene-3-carboxamide]",11%
2,"NC(=O)c1c(NC(=O)CSc2nnc(-c3ccccc3F)n2C2CC2)sc2c1CCC2 [1-A2, 2-(2-{[4-cyclopropyl-5-(2-fluorophenyl)-4H-1,2,4-triazol-3-yl]sulfanyl}acetamido)-4H,5H,6H-cyclopenta[b]thiophene-3-carboxamide]",-23%
3,"CCn1c(SC(C)C(=O)Nc2sc3c(c2C(N)=O)CCC3)nnc1-c1ccoc1C (stereo not drawn) [1-A6, 2-(2-{[4-ethyl-5-(2-methylfuran-3-yl)-4H-1,2,4-triazol-3-yl]sulfanyl}propanamido)-4H,5H,6H-cyclopenta[b]thiophene-3-carboxamide]",-31%
4,"COCCn1c(SC(C)C(=O)Nc2sc3c(c2C(N)=O)CCC3)nnc1-c1ccncc1 (stereo not drawn) [1-B12, 2-(2-{[4-(2-methoxyethyl)-5-(pyridin-4-yl)-4H-1,2,4-triazol-3-yl]sulfanyl}propanamido)-4H,5H,6H-cyclopenta[b]thiophene-3-carboxamide]",-1%
5,"Cc1ccc(-n2c(C)nnc2SCC(=O)Nc2sc3c(c2C(N)=O)CCCC3)cc1 [1-D3, 2-(2-{[5-methyl-4-(4-methylphenyl)-4H-1,2,4-triazol-3-yl]sulfanyl}acetamido)-4,5,6,7-tetrahydro-1-benzothiophene-3-carboxamide]",1%
6,"CC1CCc2c(sc(NC(=O)CSc3nnc(C4CC4)n3-c3ccccc3)c2C(N)=O)C1 (stereo not drawn) [1-D5, 2-{2-[(5-cyclopropyl-4-phenyl-4H-1,2,4-triazol-3-yl)sulfanyl]acetamido}-6-methyl-4,5,6,7-tetrahydro-1-benzothiophene-3-carboxamide]",2%
7,"Cc1occc1-c1nnc(SCC(=O)Nc2sc3c(c2C(N)=O)CCC3)n1-c1ccccc1 [1-D10, 2-(2-{[5-(2-methylfuran-3-yl)-4-phenyl-4H-1,2,4-triazol-3-yl]sulfanyl}acetamido)-4H,5H,6H-cyclopenta[b]thiophene-3-carboxamide]",17%
8,"Cc1ccccc1-n1c(SCC(=O)Nc2sc3c(c2C(N)=O)CCCC3)nnc1-c1cccnc1 [1-E12, 2-(2-{[4-(2-methylphenyl)-5-(pyridin-3-yl)-4H-1,2,4-triazol-3-yl]sulfanyl}acetamido)-4,5,6,7-tetrahydro-1-benzothiophene-3-carboxamide]",-3%
9,"NC(=O)c1c(NC(=O)CSc2nnc(-c3cccnc3)n2-c2ccccc2)sc2c1CCCC2 [1-G3, 2-(2-{[4-phenyl-5-(pyridin-3-yl)-4H-1,2,4-triazol-3-yl]sulfanyl}acetamido)-4,5,6,7-tetrahydro-1-benzothiophene-3-carboxamide]",4%
10,"NC(=O)c1c(NC(=O)CSc2nnc3n2CCCCC3)sc2c1CCCC2 [1-G10, 2-(2-{5H,6H,7H,8H,9H-[1,2,4]triazolo[4,3-a]azepin-3-ylsulfanyl}acetamido)-4,5,6,7-tetrahydro-1-benzothiophene-3-carboxamide]",-3%
11,"Cc1ccccc1-n1c(SCC(=O)Nc2sc3c(c2C(N)=O)CCC3)nnc1-c1ccncc1 [1-H1, 2-(2-{[4-(2-methylphenyl)-5-(pyridin-4-yl)-4H-1,2,4-triazol-3-yl]sulfanyl}acetamido)-4H,5H,6H-cyclopenta[b]thiophene-3-carboxamide]",-3%
12,"Cn1c(SCC(=O)Nc2sc3c(c2C(N)=O)CCC3)nnc1-c1ccc(Cl)cc1 [1-H2, 2-(2-{[5-(4-chlorophenyl)-4-methyl-4H-1,2,4-triazol-3-yl]sulfanyl}acetamido)-4H,5H,6H-cyclopenta[b]thiophene-3-carboxamide]",0%
13,"NC(=O)c1c(NC(=O)CSc2nnc(C3CC3)n2C2CC2)sc2c1CCCC2 [2-A2, 2-{2-[(dicyclopropyl-4H-1,2,4-triazol-3-yl)sulfanyl]acetamido}-4,5,6,7-tetrahydro-1-benzothiophene-3-carboxamide]",4%
14,"CC1CCCCC1NC(=O)NCCSCc1ccccc1 (stereo not drawn) [A10, 1-[2-(benzylsulfanyl)ethyl]-3-(2-methylcyclohexyl)urea]",72%
15,"O=C(Nc1cc(CSCCOC(=O)C2C3CCCCC32)ccn1)C1C2CCCCC21 (stereo not drawn) [A12, 2-{[(2-{bicyclo[4.1.0]heptane-7-amido}pyridin-4-yl)methyl]sulfanyl}ethyl bicyclo[4.1.0]heptane-7-carboxylate]",31%
16,"CC(c1cccc([N+](=O)[O-])c1)N(C)CC(=O)NCCSCc1ccccc1C#N (stereo not drawn) [B05, N-(2-{[(2-cyanophenyl)methyl]sulfanyl}ethyl)-2-{methyl[1-(3-nitrophenyl)ethyl]amino}acetamide]",15%
17,"Cc1cccc(NC(=O)CSCC(=O)N(Cc2ccc(N(C)C)cc2)C(C)C)c1 [B12, N-{[4-(dimethylamino)phenyl]methyl}-2-({[(3-methyl-phenyl)carbamoyl]methyl}sulfanyl)-N-(propan-2-yl)acetamide]",26%

# Same assay, conditions: rank by aspect ratio among 44 soluble compounds
row,SMILES,Fusogenicity Rank
1,CC(c1cccc([N+](=O)[O-])c1)N(C)CC(=O)NCCSCc1ccccc1C#N (stereo not drawn) [drawing 250],16

# Tested on: not listed separately
# Test: Solubility of library compounds in DMSO stock
# Type: physicochemical
# Conditions: stock concentration of 10 mM in DMSO
# Method: A pharmacophore model was generated based on the interactions of HR1 and HR2 domains in the calculated structural model of Mfn2 in the closed conformation. The key features included hydrophobic interactions involving Mfn2 HR1: Val372 and Met376, and aromatic interactions and hydrogen bonding involving Mfn2 HR1 His380. […] A library comprising ˜14 million commercially available compounds was prepared in silico and evaluated using PHASE to fit these criteria. Top ranked hits were clustered, and filtered based on pharmacological properties using Qikprop. The top 55 (see TABLE 4) commercially available small molecules conforming to the model were selected for functional screening and purchased in 1 mg aliquots. Each compound was dissolved to a stock concentration of 10 mM in DMSO and applied to Mfn2 null MEFs overnight at a final concentration of […]. Eleven of the library members were not soluble in DMSO at the required concentration. The 44 fully soluble compounds were screened in groups of 6 at a time for cytotoxicity (calcein AM/ethidium homodimer staining; ThermoFisher LIVE/DEAD Assay cat # L3224) and fusogenicity (increase in mitochondrial aspect ratio; MitoTracker Orange staining) compared to cells treated overnight with […] of the parent HR1 367-384 mitofusin agonist peptide (positive control) or vehicle (DMSO). Images were acquired by confocal microscopy. Each compound was scored for fusogenicity (see e.g., FIG. 24A) and % cell death (see e.g., FIG. 24B). Pharmacophore model fit generally correlated with actual fusogenic activity (Pearson correlation coefficient r=0.214; see e.g., FIG. 24A, inset; TABLE 4).
row,SMILES,Solubility in DMSO
1,CC(=O)NC12CC3CC(C1)CC(C(=O)NCCSCc1ccc(C)cc1)(C3)C2 [3-acetamido-N-(2-{[(4-methylphenyl)methyl]sulfanyl}ethyl)adamantane-1-carboxamide],Insoluble
2,"Cc1ccc(C(=O)C(C)Sc2nnc3c(=O)n(-c4ccccc4)ccn23)cc1C (stereo not drawn) [3-{[1-(3,4-dimethylphenyl)-1-oxopropan-2-yl]sulfanyl}-7-phenyl-7H,8H-[1,2,4]triazolo[4,3-a]pyrazin-8-one]",Insoluble
3,"Cc1ccc(C(=O)C(C)Sc2nnc3c(=O)n(-c4ccc(Br)cc4)ccn23)cc1C (stereo not drawn) [7-(4-bromophenyl)-3-{[1-(3,4-dimethylphenyl)-1-oxopropan-2-yl]sulfanyl}-7H,8H-[1,2,4]triazolo[4,3-a]pyrazin-8-one]",Insoluble
4,"COc1cc(Cl)c(C)cc1N1C(=O)[C@@H]2C[C@H]1CN2Cc1cccn1-c1ncccn1 [(1S,4S)-2-(4-chloro-2-methoxy-5-methylphenyl)-5-{[1-(pyrimidin-2-yl)-1H-pyrrol-2-yl]methyl}-2,5-diazabicyclo[2.2.1]heptan-3-one]",Insoluble
5,"Cc1ccc(CSCCNC(=O)C2CCN(c3ccc4nnc(C(F)(F)F)n4n3)CC2)cc1 [N-(2-{[(4-methylphenyl)methyl]sulfanyl}ethyl)-1-[3-(trifluoromethyl)-[1,2,4]triazolo[4,3-b]pyridazin-6-yl]piperidine-4-carboxamide]",Insoluble
6,"CC(Sc1nc(C2CC2)nc2c1c(=O)[nH]c(=O)n2C1CC1)C(=O)NCC1CCCCC1 (stereo not drawn) [N-(cyclohexylmethyl)-2-({2,8-dicyclopropyl-5,7-dioxo-5H,6H,7H,8H-pyrimido[4,5-d][1,3]diazin-4-yl}sulfanyl)propanamide]",Insoluble
7,"Cc1ccc(SC(C)C(=O)Nc2ccc(NS(=O)(=O)c3ccc4c(c3)OCCCO4)cc2)cc1 (stereo not drawn) [N-[4-(3,4-dihydro-2H-1,5-benzodioxepine-7-sulfonamido)phenyl]-2-[(4-methylphenyl)sulfanyl]propanamide]",Insoluble
8,"CCc1nnc(SC(CC)C(=O)N(CC)c2cccc(C)c2)c2cc3occc3n12 (stereo not drawn) [N-ethyl-2-({12-ethyl-5-oxa-1,10,11-triazatricyclo[6.4.0.0^2,^6]dodeca-2(6),3,7,9,11-pentaen-9-yl}sulfanyl)-N-(3-methylphenyl)butanamide]",Insoluble
